From patent US20060239945A1, “Cleansing composition” (Conopco Inc, d/b/a UNILEVER, priority 2004, published 2006)

Tests used:
[1] = Product stability by visual assessment of color and homogeneity after storage; assay type: physicochemical; settings: for Color Stability of ER / Color Stability / Homogeneity: 2.5% ER; for Color Stability / Homogeneity: 3 months at ~25° C., visual
Protocol: Stability of product is evaluated after a storage period of 3 months at ˜25° C. by visual measurement to assess color and homogeneity of product.

[2] = test system: skin colour of human panelists' face; assay: Efficacy on skin-lightening, half-face cleanser use versus placebo cleanser; assay type: in vivo
Excerpt: Thirty three human panelists are recruited who are required to use a known amount of the cleansing product on one half of their face. At the same time, the other half was rinsed with a placebo cleanser. Panelists were required to do this for eight weeks. The color of the skin is monitored at regular intervals by trained visual graders and instruments. A final assessment is made at eight weeks. The value for skin-lightening indicated is in comparison to the placebo effect.

human skin = assay: Skin delivery of resorcinol from product applied to human volunteer forearms; assay type: in vivo; settings: for Skin Delivery of ER: 2.5% ER, pH 6.5, percentage of initial dose after rinse
Protocol: Delivery of resorcinol on human skin was assessed through direct application of product to human volunteer forearms. A known dose of the product was applied to the area, and the product was rubbed into the area. The area on the arm was rinsed with a fixed amount of water. The collected rinse liquor was analyzed for resorcinol, and the amount delivered to skin was calculated by subtracting from the dosage applied. This is expressed as a percentage of the initial dose.

[3] = liquid cleanser with 7% neutralised fatty acid (C18/C14/C12 mix), pH 9.2
[4] = liquid cleanser with 7% sodium lauryl sulphate, pH 6.5

Color Stability of ER ([1]; cleanser with SLES (3EO) 4.5%, coca amido propyl betaine 1.47%, decyl polyglucoside (HLB 13-15) 1.5%, pH 6.5): Good | Color Stability of ER ([1]; cleanser with SLES (3EO) 6.8%, coca amido propyl betaine 2.2%, pH 6.5): Good | Color Stability [1, 3]: Dark brown | Homogeneity [1, 3]: Small precipitate | Color Stability [1, 4]: Good | Homogeneity [1, 4]: Good | stability of 4 ethyl resorcinol in the formulation ([1]; pH of the formulation below 7.5): good | delivery of 4 ethyl resorcinol from the formulation on the skin (human skin; anionic and amphoteric surfactant, or in combination with a nonionic surfactant): significant delivery | Skin Delivery of ER (human skin; cleanser with SLES (3EO) 4.5%, coca amido propyl betaine 1.47%, decyl polyglucoside 1.5%): 12.4% | Skin Delivery of ER (human skin; cleanser with SLES (3EO) 6.8%, coca amido propyl betaine 2.2%): 7.7%
Compound: CCc1ccc(O)cc1O [4 ethyl resorcinol]
Efficacy on skin-lightening ([2]; cleanser with SLES (3EO) 6.8%, coca amido propyl betaine 2.2%, 2.5% ER, pH 6.5, eight weeks, in comparison to placebo effect): −0.7 | skin colour (lightening) ([2]; through a cleansing system with anionic and amphoteric surfactant): significantly improves skin colour
